According to patent US8455510B2:
Like-named read-outs stand apart in the source and are kept apart here. Each block holds one compound with its values, some of them ahead of it.

What was measured:
[1] = test system: human osteosarcoma U2SO xenograft; test: U2SO xenograft on nude mice; settings: Table 5, oral 2.5 mg/kg, 1-5/3 w
FKBP-12 protein = biological target: T1, FKBP-12 protein (Homo sapiens, UniProt P62942); test: SPR (surface plasma resonance) binding with FKBP-12
T1 construct: purchased sigma Co
T1 sequence (P62942 whole entry, species assumed): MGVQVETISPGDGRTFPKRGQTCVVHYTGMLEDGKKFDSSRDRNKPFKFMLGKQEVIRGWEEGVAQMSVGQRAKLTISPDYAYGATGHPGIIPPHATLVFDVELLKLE
Description: (1) FKBP-12 protein was purchased from sigma Co.
(2) HBS-EP buffer solution (10 mM Hepes, 150 mM NaCl, 3.4 mM EDTA, 0.005% (v/v) surfactant P20, pH 7.4)
(3) Activating reagents EDC and NHS, and blocking reagents Ethanolamine, etc., were purchased from BIACORE AB Co. (Uppsala, Sweden).
(4) BIAcore 3000 and CM5 chip were purchased from BIACORE AB Co. (Uppsala, Sweden).
(2) […] was coupled to the FC2 channel on CM5 chip by using the Wizard for amino-coupling in Biacore 3000 controlling soft. 3.3 g/L of FKBP-12 protein was diluted with 10 mM NaAC (pH 4.6) to 66 μg/ml. The surface of the chip was washed by injecting a mixture of 0.1M1-(3-dimethylaminopropyl)-3-ethylcarbodiimide hydrochloride (EDCI) and 0.1M N-hydroxysuccinimide (NHS) (1:1) at a flow rate of 20 μL/min for 7 min. After that, the protein solution was injected, and then a 1M cholamine (pH 8.5) solution was fed for 7 min to block the activated surface of the chip. Preliminary screening and pharmacokinetic tests on the compounds
The binding abilities of small molecular compounds with FKBP-12 protein were evaluated by SPR (surface plasma resonance). The stock solution of the compound was 10 mM, and was diluted by HBS-EP buffer solution at given ratios. Pharmacokinetic tests were carried out by the Wizard for kinetic analysis in Biacore 3000 controlling soft. The resulted data were fitted by 1:1 Langmuir binding model or stability model in Biacore 3000 analytical soft to obtain the exact kinetic and thermodynamic constants.

in vivo = type: in vivo; settings: nude, mouse; for concentration at 0.5 h / concentration at 12 h / concentration at 48 h / concentration at 2 h / concentration at 5 h: CCI-779 (prototype) concentration; for Kp: read-out: AUCtissue/AUCplasma
[2] = test system: DNFB-induced delayed type hypersensitivity reaction; test: DNFB-induced delayed type hypersensitivity reaction in mice; type: in vivo, BALB/c mice; settings: 2 mg/kg/d, oral administration; model control 0.175 mm
Description: The delayed type hypersensitivity (DTH) reaction in mice was induced by DNFB to evaluate the inhibition effect of the compound on DTH in vivo. […] Preparation method: the compound was dissolved in anhydrous alcohol to prepare a stock solution (50 mg/ml), which was diluted to the desired concentration when use by using a solution of 5% PEG400, 5% Tween-80 in sterile water as a solvent. […] DNFB combined with dermal protein to form a complete antigen after sensitizing on feet of mice. One week later, mice were attacked by DNFB on ears to induce a local delayed allergic reaction, i.e., the delayed type hypersensitivity reaction to cause ear swelling, while the delayed type hypersensitivity reaction would not be observed on the ear which had not been attacked. Therefore, the ear swelling can reflect the level of the delayed type hypersensitivity reaction in mice induced by DNFB. (1) 20 μl of 0.5% DNFB solution in a mixture of acetone and olive oil (4:1) as a solvent was applied on both hind legs of mice for sensitization. […] (4) Thickness of the left and right ears of the mice was measured by a micrometer screw gauge, and the swelling was calculated by subtracting the thickness of the left ear from thickness of the right ear.

[3] = test system: human rhabdomyosarcoma RH-30 xenograft; test: RH-30 xenograft on nude mice; settings: Table 4, 5 mg/kg po, 1-5/2 w;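 further: male BALB/cA nude mice with subcutaneous RH-30 tumors, oral dosing versus solvent-fed controls, caliper tumor volume, RTV relative to grouping day, T/C as treated RTV over control RTV ×100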
Description: Animals: BALB/cA nude mice, male, 40-45 days old, body weight: 21±2 g, provided by Shanghai Institute of Materia Medica, Chinese Academy of Sciences. License No.: SCXK (Shanghai) 2004-0002. Animal number in each group: 6 in negative control group, and 6 in administration group.
The amount of inoculated cells was 5×10^6. After the xenograft was formed by inoculation, it was used after passed for 3 generations in nude mice.

[4] = Immunosuppressive activity assay: cytotoxicity; type: cell-based
T Cells = test: Immunosuppressive activity assay: T cells inhibitory activity; type: cell-based; settings: T-cell; Table 10
[5] = in vivo, Blood Plasma, Mean Value

- binding with FKBP12 (FKBP-12 protein): concentration-dependently bind
- Kd (FKBP-12 protein; FKBP12): 0.00102 µM
- AUC0-t (ng · h/g or ng · h/ml) (in vivo; in vivo): 1.098 µg·h/mL
- AUC(0-t) (in vivo; in vivo): 0.106 µg·h/mL
- Sirolimus concentration, Blood Plasma, Mean Value (in vivo; in vivo, 0.5 h): 123 ng/mL
- Sirolimus concentration, Liver, Mean Value (in vivo; in vivo, 0.5 h): 142 ng/g
- Sirolimus concentration, Tumor, Mean Value (in vivo; in vivo, 0.5 h): 9.03 ng/g
- Sirolimus concentration, Blood Plasma, Mean Value (in vivo; in vivo, 2 h): 143 ng/mL
- Sirolimus concentration, Liver, Mean Value (in vivo; in vivo, 2 h): 98.4 ng/g
- Sirolimus concentration, Tumor, Mean Value (in vivo; in vivo, 2 h): 36.3 ng/g
- Sirolimus concentration, Blood Plasma, Mean Value (in vivo; in vivo, 5 h): 58.2 ng/mL
- Sirolimus concentration, Liver, Mean Value (in vivo; in vivo, 5 h): 83.9 ng/g
- Sirolimus concentration, Tumor, Mean Value (in vivo; in vivo, 5 h): 30.3 ng/g
- Sirolimus concentration, Blood Plasma, Mean Value (in vivo; in vivo, 12 h): 14.2 ng/mL
- Sirolimus concentration, Liver, Mean Value (in vivo; in vivo, 12 h): 33.2 ng/g
- Sirolimus concentration, Tumor, Mean Value (in vivo; in vivo, 12 h): 19.1 ng/g
- Sirolimus concentration, Blood Plasma, Mean Value (in vivo; in vivo, 48 h): 3.08 ng/mL
- Sirolimus concentration, Liver, Mean Value (in vivo; in vivo, 48 h): 9.12 ng/g
- Sirolimus concentration, Tumor, Mean Value (in vivo; in vivo, 48 h): 16.7 ng/g
- concentration at 0.5 h (in vivo; in vivo, Blood Plasma): 20.5 ng/mL
- concentration at 12 h (in vivo; in vivo, Blood Plasma): 1.3 ng/mL
- concentration at 48 h (in vivo; in vivo, Blood Plasma): 0.16 ng/mL
- concentration at 0.5 h (in vivo; [5]): 30.9 ng/mL
- concentration at 2 h (in vivo; [5]): 11.7 ng/mL
- concentration at 5 h (in vivo; [5]): 3.67 ng/mL
- concentration at 12 h (in vivo; [5]): 1.27 ng/mL
- concentration at 48 h (in vivo; [5]): 0.164 ng/mL
- concentration at 0.5 h (in vivo; in vivo, Liver): 392 ng/g
- concentration at 2 h (in vivo; in vivo, Liver): 103 ng/g
- concentration at 5 h (in vivo; in vivo, Liver): 45.5 ng/g
- concentration at 0.5 h (in vivo; in vivo, Liver, Mean Value): 474 ng/g
- concentration at 2 h (in vivo; in vivo, Liver, Mean Value): 151 ng/g
- concentration at 5 h (in vivo; in vivo, Liver, Mean Value): 57.6 ng/g
- concentration at 12 h (in vivo; in vivo, Liver, Mean Value): 28.6 ng/g
- concentration at 48 h (in vivo; in vivo, Liver, Mean Value): 3.11 ng/g
- concentration at 2 h (in vivo; in vivo, Tumor): 31.1 ng/g
- concentration at 12 h (in vivo; in vivo, Tumor): 9.37 ng/g
- concentration at 48 h (in vivo; in vivo, Tumor): 6.48 ng/g
- concentration at 2 h (in vivo; in vivo, Tumor, Mean Value): 28.8 ng/g
- concentration at 5 h (in vivo; in vivo, Tumor, Mean Value): 16.6 ng/g
- concentration at 12 h (in vivo; in vivo, Tumor, Mean Value): 10.5 ng/g
- concentration at 48 h (in vivo; in vivo, Tumor, Mean Value): 6.52 ng/g
- Cmax (in vivo; in vivo, Cmax (ng/g or ng/ml)): 30.9 ng/mL
- Kp (in vivo; liver): 16.8
- Kp (in vivo; tumor): 4.77
SMILES: CO[C@H]1C[C@@H]2CC[C@@H](C)[C@@](O)(O2)C(=O)C(=O)N2CCCC[C@H]2C(=O)O[C@H]([C@H](C)C[C@@H]2CC[C@@H](OC(=O)C(C)(CO)CO)[C@H](OC)C2)CC(=O)[C@H](C)/C=C(\C)[C@@H](O)[C@@H](OC)C(=O)[C@H](C)C[C@H](C)/C=C/C=C/C=C/1C [CCI-779]
- Body Weight (g) end [1]: 17.7 g
- Body Weight (g) start [1]: 19.9 g
- RTV [1]: 17 ± 7.0
- T/C (%) [1]: 69.0%
- TV (mm^3) d21 [1]: 1446 ± 630 mm^3
- TV (mm^3) d0 ([1]; baseline): 85 ± 17 mm^3

SMILES: C[C@@H]1C[C@H]2[C@@H]3CCC4=CC(=O)C=C[C@]4(C)[C@@]3(F)[C@@H](O)C[C@]2(C)[C@@]1(O)C(=O)CO [Dex]
- average ear swelling degree [2]: 0.13 mm

SMILES: CO[C@H]1CC2CC[C@@H](C)[C@@](O)(O2)C(=O)C(=O)N2CCCCC2C(=O)O[C@H]([C@H](C)C[C@@H]2CC[C@@H](O)[C@H](OC)C2)CC(=O)[C@H](C)/C=C(\C)[C@@H](OC(=O)OCC(O)CO)[C@@H](OC)C(=O)[C@H](C)C[C@H](C)/C=C/C=C/C=C/1C (some centres unmarked) [Y31-1]
- Body Weight (g) end [3]: 21.2 g
- Body Weight (g) start [3]: 20.2 g
- RTV [3]: 2.4 ± 1.0
- T/C (%) [3]: 55.7%
- TV (mm^3) d14 [3]: 381 ± 158 mm^3
- TV (mm^3) d0 ([3]; baseline): 164 ± 44 mm^3

- IC50 (T Cells): 5.3 µM
SMILES: CO[C@H]1CC2CC[C@@H](C)[C@@](O)(O2)C(=O)C(=O)N2CCCCC2C(=O)O[C@H]([C@H](C)C[C@@H]2CC[C@@H](OC(=O)OCC3COC(C)(C)O3)[C@H](OC)C2)CC(=O)[C@H](C)/C=C(\C)[C@@H](OC(=O)OCC2COC(C)(C)O2)[C@@H](OC)C(=O)[C@H](C)C[C@H](C)/C=C/C=C/C=C/1C (some centres unmarked) [Y230]
- Safety Index CC50/IC50 ([4]; Table 10): >18.9
- CC50 ([4]; Table 10, value beyond the >100 μM bound, read-out: Cytotoxicity CC50, value in brackets): 39800 µM
- CC50 ([4]; Table 10, read-out: Cytotoxicity CC50): > 100 µM
